The values that follow come from US7282507B2, “Indole derivatives as selective androgen receptor modulators (SARMS)” (Janssen Pharmaceutica N.V., priority 2004, dated 2007).

SMILES strings stand for the structures.

Experiment [1] has as its system testosterone-enhanced ventral prostate and seminal vesicle weights. Nature of the experiment: Ventral Prostate and Seminal Vesicle Weight in vivo Assay. Also: key: 'active' if the non weight adjusted prostate weight was ≦40 mg or the % Inhibition prostate weight, body weight adjusted was ≧40% @ 2 mg/day dosage; ID50's, if determined, of ≦15 mg/day also indicated an 'active' compound; listed herein as 'inactive' as they did not meet the specified criteria defined above. On the set-up: species or system rat. Particulars: immature castrated male Sprague Dawley rats, once daily for five days, usually orally 40 mg/kg, with testosterone propionate 2 mg/kg s.c. As for the experimental part:
Immature (approximately 50 g) castrated male Sprague Dawley rats (Charles River) were treated once daily for five days with test compound (usually given orally at 40 mg/kg in a volume of 0.3 mL, in 30% cyclodextrin or 0.5% methylcellulose vehicle) and with testosterone propionate (given subcutaneously by injection at the nape of the neck at 2 mg/kg, in a volume of 0.1 mL in sesame oil). On the sixth day, the rats were euthanized by asphyxiation in carbon dioxide. Ventral prosatates and seminal vesicles were removed and their wet weights determined.
A test compound was said to be “active” if the non weight adjusted prostate weight was ≦40 mg or the % Inhibition prostate weight, body weight adjusted was ≧40% @ 2 mg/day dosage.

Experiment [2] deals with T1, androgen receptor (AdEasy+rAR, L929 cells) (Rattus norvegicus, UniProt P15207).
T1 construct: expressed in transfected cells; host or cells: L929 cells transduced with adenovirus AdEasy+rAR
T1 sequence (P15207 1-902): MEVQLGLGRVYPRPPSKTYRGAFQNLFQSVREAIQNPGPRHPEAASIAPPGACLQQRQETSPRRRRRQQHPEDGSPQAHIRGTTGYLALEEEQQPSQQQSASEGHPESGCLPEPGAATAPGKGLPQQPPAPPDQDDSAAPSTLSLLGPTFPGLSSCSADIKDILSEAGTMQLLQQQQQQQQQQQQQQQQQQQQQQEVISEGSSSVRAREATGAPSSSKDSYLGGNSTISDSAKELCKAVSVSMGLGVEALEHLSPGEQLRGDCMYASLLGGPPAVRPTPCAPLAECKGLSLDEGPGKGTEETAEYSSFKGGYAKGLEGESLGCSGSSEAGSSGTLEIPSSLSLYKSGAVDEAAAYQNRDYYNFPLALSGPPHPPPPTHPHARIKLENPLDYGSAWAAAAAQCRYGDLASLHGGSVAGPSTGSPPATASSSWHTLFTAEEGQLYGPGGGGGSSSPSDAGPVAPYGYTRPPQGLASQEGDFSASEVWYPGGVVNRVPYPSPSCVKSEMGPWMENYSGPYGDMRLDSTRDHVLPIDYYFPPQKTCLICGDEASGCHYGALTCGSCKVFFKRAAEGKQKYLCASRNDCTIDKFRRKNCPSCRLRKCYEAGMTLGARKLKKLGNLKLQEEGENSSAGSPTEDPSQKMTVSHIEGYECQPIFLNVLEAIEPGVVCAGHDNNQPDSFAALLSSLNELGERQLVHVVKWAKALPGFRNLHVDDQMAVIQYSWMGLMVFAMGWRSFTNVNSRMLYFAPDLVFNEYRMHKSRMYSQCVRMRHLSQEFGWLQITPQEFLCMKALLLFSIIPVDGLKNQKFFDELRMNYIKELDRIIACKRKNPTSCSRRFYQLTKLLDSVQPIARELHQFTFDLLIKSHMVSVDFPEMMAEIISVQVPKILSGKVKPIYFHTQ
Nature of the experiment: L929 Androgen Receptor Functional Assay, Adenovirus Transduction. The class given is cell-based. Particulars: agonist testing, 3000 nM. The method, then:
L929 cells were plated in 96-well plates at 20,000 cells per well, in DMEM/F12 (GIBCO) containing 10% (v/v) charcoal-treated fetal bovine serum (Hyclone) and lacking phenol red. The plates were then incubated overnight at 37° C. in 5% (v/v) humidified CO2.
Test compound dilutions were prepared in 100% (v/v) DMSO, if necessary. Each dilution was made to 1250× the final desired assay concentration.
First, 2 mL of DMEM/F12 lacking phenol red was pipetted into the wells of a 2-mL 96-well assay block. Next, 4 μL of the 1250× test compound dilutions were pipetted into each well of the assay block. The mixtures within the well were then carefully mixed by pipette.
In a 15 mL or 50 mL sterile centrifuge tube, a 2.5 nM (2.5×) dilution of R1881 (methyl-trienolone) in DMEM/F12 lacking phenol red was prepared.
In a second 15 mL or 50 mL centrifuge tube a solution containing an equal volume of DMEM to the first and an equal volume of 100% (v/v) DMSO to the volume of R1881 used in the first tube was prepared.
In a 15 mL or 50 mL sterile centrifuge tube, a dilution in DMEM/F12 of the adenovirus AdEasy+rAR at an moi of 1:500 per well was prepared.
The medium was removed from the 96-well plates by inversion and dried, inverted, very briefly. As soon as possible after medium removal, 40 μL of the diluted unlabeled test compound was added to each well, in duplicate. To each well designated for antagonist testing was added 40 μL of the 2.5 nM R1881 dilution to the wells for antagonist testing. To each well designated for agonist testing was added 40 μL of the DMSO dilution. Then 20 μL of the diluted adenovirus were added to all wells. The plates were incubated for 48 hours at 37° C. in 5% (v/v) humidified CO2.
To each well was added 100 μL of Steady-Glo luciferase assay substrate (Promega) and the plates were placed on a rotary shaker for 1 min. The plates were then incubated at room temperature in the dark for one hour. The contents of each well were then transferred to a white microtiter plate (Packard) and read on a Luminoskan Ascent (Thermo Lab Systems).
L929 AR percent activity was determined by testing dilutions of the test compound using a concentration of 3000 nM unless otherwise noted. L929 percent inhibition was determined by testing dilutions of the test compound using a concentration of 3000 nM. […] Luciferase activity per well were measured and EC50s and IC50s determined by linear regression.

Regarding `CC(O)(COc1ccc(C#N)c(C(F)(F)F)c1)c1cc2cc(C#N)c(C(F)(F)F)cc2[nH]1` (stereo not shown) [Compound 429, 2-[2-(4-Cyano-3-trifluoromethyl-phenoxy)-1-hydroxy-1-methyl-ethyl]-6-trifluoromethyl-1H-indole-5-carbonitrile], the “active / inactive: inhibition of testosterone-enhanced prostate weight” value (“active / inactive: inhibition” for short) in experiment [1] was “inactive”.
On to `CCSCC(C)(O)c1cc2cc(C#N)ncc2[nH]1` (stereo not shown) [Compound 7], for which, in experiment [1], the “active / inactive: inhibition” value is “inactive”.
For the compound `CC(O)(COc1ccc(C#N)cc1)c1cc2cc(C#N)c(C(F)(F)F)cc2[nH]1` (stereo not shown) [Compound 426, 2-[2-(4-Cyano-phenoxy)-1-hydroxy-1-methyl-ethyl]-6-trifluoromethyl-1H -indole-5-carbonitrile], the “active / inactive: inhibition” value in experiment [1] is “inactive”.
Consider `Cc1c(C(C)(C)O)[nH]c2cc(C(F)(F)F)c([N+](=O)[O-])cc12` [Compound 290], for which, in experiment [1], the “active / inactive: inhibition” value was “inactive”.
For the compound `CCSCC(C)(O)c1[nH]c2cc(C(F)(F)F)c(C#N)cc2c1I` (racemic) [Compound 324], the “active / inactive: inhibition” value in experiment [1] was “inactive”.
For the compound `CCSCC(C)(O)c1cc2cc(Cl)c(C(F)(F)F)cc2n1S(C)(=O)=O` (racemic) [Compound 146], the “active / inactive: inhibition” value in experiment [1] was “inactive”.
With `CCS(=O)(=O)CC(C)(O)c1cc2cc([N+](=O)[O-])c(C(F)(F)F)cc2n1C` (single isomer, unassigned) [Compound 232], the “active / inactive: inhibition” value in experiment [1] is reported as “active”.
Turning to `CCSCC(O)c1[nH]c2cc(C(F)(F)F)c(C#N)cc2c1Br` (racemic) [Compound 413], in experiment [1], the “active / inactive: inhibition” value was “inactive”.
Same read-out and setting: to `CC(O)(c1[nH]c2cc(C(F)(F)F)c(C#N)cc2c1Cl)C(F)(F)F` (single isomer, unassigned) [Compound 345] belongs “active”; to `CCSCC(O)c1cc2cc(C#N)c(C(F)(F)F)cc2[nH]1` (racemic) [Compound 410], “inactive”; to `CC(C)(O)c1[nH]c2cc(C(F)(F)F)c(Cl)cc2c1Cl` [Compound 282], “inactive”.
Take `CC(O)(c1cc2cc(C#N)c(C(F)(F)F)cc2[nH]1)C(F)(F)F` (stereo not shown) [Compound 335, 2-(2,2,2-Trifluoro-1-hydroxy-1-methyl-ethyl)-6-trifluoromethyl-1H-indole-5-carbonitrile]: the “active / inactive: inhibition” value in experiment [1] is listed as “active”.
On to `CCSCC(C)(O)c1c(C)c2cc(C#N)c(C(F)(F)F)cc2n1C` (single isomer, unassigned) [Compound 317], for which, in experiment [1], the “active / inactive: inhibition” value is “inactive”.
As to `CCSCC(C)(O)c1cc2cc(C#N)c(C(F)(F)F)cc2n1CC` (racemic) [Compound 243], in experiment [1], the “active / inactive: inhibition” value is “active”.
Same read-out and setting: under `CC(C)(O)c1[nH]c2cc(C(F)(F)F)c([N+](=O)[O-])cc2c1Br` [Compound 277] stands “active”; under `CC(O)(c1[nH]c2cc(C(F)(F)F)c(C#N)cc2c1I)C(F)(F)F` (racemic) [Compound 330], “active”.
With `CC(O)(CSc1ccc(N)cc1)c1cc2cc(Cl)c(C(F)(F)F)cc2n1S(C)(=O)=O` (racemic) [Compound 125], the “% Activity, L929 androgen receptor functional assay” value in experiment [2] is recorded as −5%.
In the case of `CCSCC(C)(O)c1cc2cc(C#N)c(C)cc2[nH]1` (racemic) [Compound 446], in experiment [1], the “active / inactive: inhibition” value was “inactive”.
For the compound `OC1(c2cc3cc(Cl)c(C(F)(F)F)cc3[nH]2)CCSC1` (racemic) [Compound 14], the “active / inactive: inhibition” value in experiment [1] was “inactive”.
Take `N#Cc1cc2cc(C(O)(C(F)(F)F)C(F)(F)F)[nH]c2cc1C(F)(F)F` [Compound 357]: the “active / inactive: inhibition” value in experiment [1] is “active”.
Still for that read-out and setting: under `CCSCC(C)(O)c1cc2cc([N+](=O)[O-])c(C(F)(F)F)cc2[nH]1` (racemic) [Compound 153] stands “inactive”; under `CCS(=O)(=O)CC(C)(O)c1cc2cc([N+](=O)[O-])c(C(F)(F)F)cc2n1C` (single isomer, unassigned) [Compound 250], “active”; under `O=[N+]([O-])c1cc2cc(C3(O)CCSC3)[nH]c2cc1C(F)(F)F` (racemic) [Compound 18], “inactive”.
For the compound `CC(O)(c1cc2cc(C#N)c(C(F)(F)F)cc2n1CC#N)C(F)(F)F` (racemic) [Compound 331], the “active / inactive: inhibition” value in experiment [1] is listed as “active”.
Turning to `CC(C)(O)c1[nH]c2cc(C(F)(F)F)c([N+](=O)[O-])cc2c1Cl` [Compound 275], the “active / inactive: inhibition” value in experiment [1] was “active”.
For `CC(C)(O)c1[nH]c2cc(C(F)(F)F)c(C#N)cc2c1Cl` [Compound 287], the “active / inactive: inhibition” value in experiment [1] was “inactive”.
Consider `CCSCC(C)(O)c1cc2cc([N+](=O)[O-])c(C(F)(F)F)cc2o1` (racemic) [Compound 9], for which, in experiment [1], the “active / inactive: inhibition” value was “inactive”.
Consider `CC(C)(O[Si](C)(C)C)c1cc2cc(Cl)c(C(F)(F)F)cc2n1S(C)(=O)=O` [Compound 270], for which, in experiment [1], the “active / inactive: inhibition” value is “inactive”.
For the compound `CC(C)(O)c1cc2cc(Cl)c(C(F)(F)F)cc2n1S(C)(=O)=O` [Compound 284], the “active / inactive: inhibition” value in experiment [1] is “active”.
With `CC[S+]([O-])CC(C)(O)c1[nH]c2cc(C(F)(F)F)c(C#N)cc2c1C` (mixture of isomers) [Compound 319], the “active / inactive: inhibition” value in experiment [1] is on record as “active”.
As for `CC(O)(c1cc2cc(C#N)c(C(F)(F)F)cc2[nH]1)C(F)(F)F` (stereo not shown) [Compound 334, 2-(2,2,2-Trifluoro-1-hydroxy-1-methyl-ethyl)-6-trifluoromethyl-1H-indole-5-carbonitrile], in experiment [1], the “active / inactive: inhibition” value is recorded as “active”.
With `CCSCC(O)(CSCC)c1cc2cc([N+](=O)[O-])c(C(F)(F)F)cc2[nH]1` [Compound 13], the “active / inactive: inhibition” value in experiment [1] was “inactive”.
Consider `CC(C)(O)c1[nH]c2cc(C(F)(F)F)c(Cl)cc2c1Br` [Compound 280], for which, in experiment [1], the “active / inactive: inhibition” value was “inactive”.
As to `CC(O)(CSCC(F)(F)F)c1cc2cc(C#N)c(C(F)(F)F)cc2[nH]1` (racemic) [Compound 211], the “% Activity, L929 androgen receptor functional assay” value in experiment [2] was −1%.
